Laboratory results: ChEMBL document CHEMBL1201862, “PubChem BioAssay data set” (2004)
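Interpolation was linear, between the two tested concentrations surrounding the appropriate level; five concentrations were tested over 48 hours in 96-well plates. Abbreviation: GI50, concentration required for 50% inhibition of growth.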 Active and inactive are the calls of the source. Rule as the data show it: active = GI50 up to about 1.1 µM and inactive = higher.

Tests used:
Experiment in all cases: NCI tumour cell line growth inhibition, 48 h
SF-295 = system: SF-295
UO-31 = system: UO-31
NCI-H226 = system: NCI-H226
Hs-578T = system: Hs-578T
SNB-75 = system: SNB-75
M14 = system: M14
ACHN = system: ACHN
MDA-MB-231 = system: MDA-MB-231
BT-549 = system: BT-549
DU-145 = system: DU-145
A498 = system: A498
MCF7 = system: MCF7
RPMI-8226 = system: RPMI-8226
786-0 = system: 786-0
SW-620 = system: SW-620
HCT-15 = system: HCT-15
NCI-H460 = system: NCI-H460
Malme-3M = system: Malme-3M
SK-MEL-5 = system: SK-MEL-5
MOLT-4 = system: MOLT-4
SF-268 = system: SF-268
COLO 205 = system: COLO 205
UACC-257 = system: UACC-257
MDA-MB-435 = system: MDA-MB-435
OVCAR-5 = system: OVCAR-5
HCT-116 = system: HCT-116
SK-MEL-2 = system: SK-MEL-2
OVCAR-3 = system: OVCAR-3
TK-10 = system: TK-10
HCC 2998 = system: HCC 2998
SF-539 = system: SF-539
IGROV-1 = system: IGROV-1
EKVX = system: EKVX
SN12C = system: SN12C
CAKI-1 = system: CAKI-1
NCI/ADR-RES = system: NCI/ADR-RES
PC-3 = system: PC-3
SK-OV-3 = system: SK-OV-3
NCI-H522 = system: NCI-H522
HL-60 = system: HL-60
HT-29 = system: HT-29
SK-MEL-28 = system: SK-MEL-28
MDA-N = system: MDA-N
A549 = system: A549
OVCAR-4 = system: OVCAR-4
T47D = system: T47D
K562 = system: K562
OVCAR-8 = system: OVCAR-8
KM12 = system: KM12
LOX IMVI = system: LOX IMVI
CCRF-CEM = system: CCRF-CEM
SNB-19 = system: SNB-19
HOP-92 = system: HOP-92
U-251 = system: U-251
UACC-62 = system: UACC-62
NCI-H23 = system: NCI-H23
HOP-62 = system: HOP-62

With `COc1cc2c(cc1O)C1CC(CC3CCCCN31)OC(=O)/C=C\c1ccc(O)c-2c1` (stereo unspecified) the GI50 (SF-295) was 13.5 µM (inactive), the GI50 (UO-31) was 25.9 µM (inactive) and the GI50 (NCI-H226) was 41.4 µM (inactive). For the same compound, the GI50 (Hs-578T) was 18.3 µM (inactive), the GI50 (SNB-75) was 10.2 µM (inactive) and the GI50 (M14) was 19.6 µM (inactive). For the same compound, the GI50 (ACHN) was 31.6 µM (inactive), the GI50 (MDA-MB-231) was 24.3 µM (inactive) and the GI50 (BT-549) was 27.9 µM (inactive). For the same compound, the GI50 (DU-145) was 27.7 µM (inactive), the GI50 (A498) was 12.9 µM (inactive) and the GI50 (MCF7) was 13.9 µM (inactive). For the same compound, the GI50 (RPMI-8226) was 27 µM (inactive), the GI50 (786-0) was 32.4 µM (inactive) and the GI50 (SW-620) was 51.2 µM (inactive). The GI50 (HCT-15) was 36.9 µM, the GI50 (NCI-H460) was 37.1 µM (inactive) and the GI50 (Malme-3M) was 19.5 µM (inactive). For the same compound, the GI50 (SK-MEL-5) was 16.8 µM (inactive), the GI50 (MOLT-4) was 20 µM (inactive) and the GI50 (SF-268) was 24.9 µM (inactive). For the same compound, the GI50 (COLO 205) was 25.2 µM (inactive), the GI50 (UACC-257) was 19.1 µM (inactive) and the GI50 (MDA-MB-435) was 21.9 µM (inactive). For the same compound, the GI50 (OVCAR-5) was 58.3 µM (inactive), the GI50 (HCT-116) was 27.9 µM (inactive) and the GI50 (SK-MEL-2) was 26.5 µM (inactive). For the same compound, the GI50 (OVCAR-3) was 21.3 µM (inactive), the GI50 (TK-10) was 26.4 µM (inactive) and the GI50 (HCC 2998) was 18.2 µM (inactive). The GI50 (SF-539) was 15.8 µM (inactive), the GI50 (IGROV-1) was 24.7 µM (inactive) and the GI50 (EKVX) was 41.6 µM (inactive). The GI50 (SN12C) was 37.2 µM (inactive), the GI50 (CAKI-1) was 23.1 µM (inactive) and the GI50 (NCI/ADR-RES) was 23.8 µM (inactive). The GI50 (PC-3) was 28.5 µM (inactive), the GI50 (SK-OV-3) was 31.2 µM (inactive) and the GI50 (NCI-H522) was 26.5 µM (inactive). The GI50 (HL-60) was 27.8 µM (inactive), the GI50 (HT-29) was 20.5 µM (inactive) and the GI50 (SK-MEL-28) was 28.3 µM (inactive). The GI50 (MDA-N) was 35.9 µM (inactive), the GI50 (A549) was 57 µM (inactive) and the GI50 (OVCAR-4) was 27.3 µM (inactive). For the same compound, the GI50 (T47D) was 18.5 µM (inactive), the GI50 (K562) was 28 µM (inactive) and the GI50 (OVCAR-8) was 21.6 µM (inactive). For the same compound, the GI50 (KM12) was 16.4 µM (inactive), the GI50 (LOX IMVI) was 16.7 µM (inactive) and the GI50 (CCRF-CEM) was 30.1 µM (inactive). The GI50 (SNB-19) was 63 µM (inactive), the GI50 (HOP-92) was 15.5 µM (inactive) and the GI50 (U-251) was 35 µM (inactive). For the same compound, the GI50 (UACC-62) was 18 µM (inactive) and the GI50 (NCI-H23) was 64 µM (inactive).
With `O=[N+]([O-])C(=C1NCCN1)/C(Cl)=C(/Cl)N1CCOCC1` the GI50 (SF-295) was > 100 µM (inactive), the GI50 (UO-31) was > 100 µM (inactive) and the GI50 (NCI-H226) was > 100 µM (inactive). The GI50 (Hs-578T) was > 100 µM (inactive), the GI50 (SNB-75) was > 100 µM (inactive) and the GI50 (M14) was > 100 µM (inactive). For the same compound, the GI50 (ACHN) was > 100 µM (inactive), the GI50 (MDA-MB-231) was > 100 µM (inactive) and the GI50 (BT-549) was > 100 µM (inactive). For the same compound, the GI50 (DU-145) was > 100 µM (inactive), the GI50 (A498) was > 100 µM (inactive) and the GI50 (MCF7) was > 100 µM (inactive). The GI50 (RPMI-8226) was > 100 µM (inactive), the GI50 (786-0) was > 100 µM (inactive) and the GI50 (SW-620) was > 100 µM (inactive). For the same compound, the GI50 (HCT-15) was over 100 µM, the GI50 (NCI-H460) was > 100 µM (inactive) and the GI50 (Malme-3M) was > 100 µM (inactive). For the same compound, the GI50 (MOLT-4) was > 100 µM (inactive), the GI50 (SF-268) was > 100 µM (inactive) and the GI50 (COLO 205) was > 100 µM (inactive). For the same compound, the GI50 (UACC-257) was > 100 µM (inactive), the GI50 (MDA-MB-435) was > 100 µM (inactive) and the GI50 (OVCAR-5) was > 100 µM (inactive). The GI50 (HOP-62) was > 100 µM (inactive), the GI50 (HCT-116) was > 100 µM (inactive) and the GI50 (SK-MEL-2) was > 100 µM (inactive). For the same compound, the GI50 (OVCAR-3) was > 100 µM (inactive), the GI50 (HCC 2998) was > 100 µM (inactive) and the GI50 (SF-539) was > 100 µM (inactive). The GI50 (EKVX) was > 100 µM (inactive), the GI50 (SN12C) was > 100 µM (inactive) and the GI50 (CAKI-1) was > 100 µM (inactive). The GI50 (NCI/ADR-RES) was > 100 µM (inactive), the GI50 (PC-3) was > 100 µM (inactive) and the GI50 (SK-OV-3) was > 100 µM (inactive). For the same compound, the GI50 (HT-29) was > 100 µM (inactive), the GI50 (SK-MEL-28) was > 100 µM (inactive) and the GI50 (MDA-N) was > 100 µM (inactive). For the same compound, the GI50 (A549) was > 100 µM (inactive), the GI50 (OVCAR-4) was > 100 µM (inactive) and the GI50 (T47D) was > 100 µM (inactive). The GI50 (K562) was > 100 µM (inactive), the GI50 (OVCAR-8) was > 100 µM (inactive) and the GI50 (KM12) was > 100 µM (inactive). For the same compound, the GI50 (CCRF-CEM) was > 100 µM (inactive), the GI50 (SNB-19) was > 100 µM (inactive) and the GI50 (U-251) was > 100 µM (inactive). The GI50 (UACC-62) was > 100 µM (inactive) and the GI50 (NCI-H23) was > 100 µM (inactive).
